Test results reported in patent publication US20260226029A1, “1-(1-Oxo-1,2-Dihydrophthalazin-6-yl)Cycloalkyl-1-Carboxamide Derivatives as MTA-Cooperative Inhibitors of PRMT5” (BeOne Medicines I GmbH, priority 2023, published 2026).

Columns and labels:
HCT116-mock-RNA-KO = test: Compounds cell killing in HCT116 isogenic pair (CellTiter-Glo, 6 days), mock-KO (MTAP wildtype) cells; format: cell-based; details: Homo sapiens, HCT-116, 144 h, Cell Titer-Glo, 0-10 μM
Description: (§1) HCT116 cell line (ATCC, CCL-247) was isolated from the colon of an adult with colon cancer. It has a mutation in codon 13 of the ras proto-oncogene and can be used as a positive control for PCR assays of mutation in this codon. HCT116-MTAP-KO was knocked-out-MTAP-gene based HCT116, and a single clone was passed for this assay. HCT116-mock-RNA-KO was knocked-out-mock-gene based HCT116 with MTAP wildtype genotype. The base medium for HCT116 isogenic pair is RPMI 1640, HEPES (Gibco, 22400105). To make the complete growth medium, add the following components to the base medium: fetal bovine serum to a final concentration of 10% (Gibco, 10099-141C). The cell line was grown in a humidified 5% CO2 atmosphere at 37° C. and regularly tested for the presence of mycoplasma with MycoAlert™ PLUS Mycoplasma Detection Kit (Lonza, LT07-710).
(§2) • Seed HCT116-mock-RNA-KO (4E2/well) or HCT116-MTAP-KO (4E2/well) cells into a 96-well plate (Greiner: 655090), 100 µL/well. • Incubate at 37° C., 5% CO2, overnight. • Add 50 μL fresh growth-medium containing serial dilution of compounds for a final compound concentration of 0-10 μM to each well. • Incubate at 37° C., 5% CO2, 6 days. • The cell viability detected by Cell Titer-Glo (Promega, G7573). Add 70 μL of CellTiter-Glo® reagent in each well. • Incubate at room temperature for 10 minutes to stabilize luminescent signal. • Analyze with Microplate Reader (TECAN, SPARK) and fit IC50 using Prism® 9.

HCT116-MTAP-KO = test: Compounds cell killing in HCT116 isogenic pair (CellTiter-Glo, 6 days), MTAP-KO cells; format: cell-based; details: Homo sapiens, HCT-116, 144 h, Cell Titer-Glo, 0-10 μM
Description: as §1, §2

CC(C)(C)c1ccc(CN(C(=O)C2(c3ccc4c(=O)[nH]nc(CN)c4c3)CC2)C2CCCc3cccnc32)nc1 (stereo not drawn) [Example 14, 1-(4-(aminomethyl)-1-oxo-1,2-dihydrophthalazin-6-yl)-N-((5-(tert-butyl)pyridin-2-yl)methyl)-N-(5,6,7,8-tetrahydroquinolin-8-yl)cyclopropane-1-carboxamide]
IC50 (HCT116-mock-RNA-KO): > 10000 nM
IC50 (HCT116-MTAP-KO): 378 nM

NCc1n[nH]c(=O)c2ccc(C3(C(=O)N(Cc4ncc(Br)c5ccccc45)C4CCCc5cccnc54)CC3)cc12 (stereo not drawn) [Example 15, 1-(4-(aminomethyl)-1-oxo-1,2-dihydrophthalazin-6-yl)-N-((4-bromoisoquinolin-1-yl)methyl)-N-(5,6,7,8-tetrahydroquinolin-8-yl)cyclopropane-1-carboxamide]
IC50 (HCT116-mock-RNA-KO): 5080 nM
IC50 (HCT116-MTAP-KO): 942 nM

Cn1nccc1-c1ccc(CN(C(=O)C2(c3ccc4c(=O)[nH]nc(CN)c4c3)CC2)C2CCCc3cccnc32)nc1 (stereo not drawn) [Example 16, 1-(4-(aminomethyl)-1-oxo-1,2-dihydrophthalazin-6-yl)-N-((5-(1-methyl-1H-pyrazol-5-yl)pyridin-2-yl)methyl)-N-(5,6,7,8-tetrahydroquinolin-8-yl)cyclopropane-1-carboxamide]
IC50 (HCT116-mock-RNA-KO): > 10000 nM
IC50 (HCT116-MTAP-KO): 699 nM

COc1ccnc2c1CCCC2N(Cc1ccc(C(F)(F)F)cn1)C(=O)C1(c2ccc3c(=O)[nH]nc(CN)c3c2)CC1 (stereo not drawn) [Example 17, 1-(4-(aminomethyl)-1-oxo-1,2-dihydrophthalazin-6-yl)-N-(4-methoxy-5,6,7,8-tetrahydroquinolin-8-yl)-N-((5-(trifluoromethyl)pyridin-2-yl)methyl)cyclopropane-1-carboxamide]
IC50 (HCT116-mock-RNA-KO): > 10000 nM
IC50 (HCT116-MTAP-KO): 253 nM

NCc1n[nH]c(=O)c2ccc(C3(C(=O)N(Cc4ccc(-c5c(F)cccc5F)cn4)C4CCCc5cccnc54)CC3)cc12 (stereo not drawn) [Example 18, 1-(4-(aminomethyl)-1-oxo-1,2-dihydrophthalazin-6-yl)-N-((5-(2,6-difluorophenyl)pyridin-2-yl)methyl)-N-(5,6,7,8-tetrahydroquinolin-8-yl)cyclopropane-1-carboxamide]
IC50 (HCT116-mock-RNA-KO): 2220 nM
IC50 (HCT116-MTAP-KO): 35 nM

NCc1n[nH]c(=O)c2ccc(C3(C(=O)N(Cc4ccc(-c5c(F)cccc5F)cn4)[C@@H]4CCCc5cccnc54)CC3)cc12 [Example 19A, (R)-1-(4-(aminomethyl)-1-oxo-1,2-dihydrophthalazin-6-yl)-N-((5-(2,6-difluorophenyl)pyridin-2-yl)methyl)-N-(5,6,7,8-tetrahydroquinolin-8-yl)cyclopropane-1-carboxamide]
IC50 (HCT116-mock-RNA-KO): 2230 nM
IC50 (HCT116-MTAP-KO): 17 nM

NCc1n[nH]c(=O)c2ccc(C3(C(=O)N(Cc4ccc(-c5c(F)cccc5F)cn4)[C@H]4CCCc5cccnc54)CC3)cc12 [Example 19B, (S)-1-(4-(aminomethyl)-1-oxo-1,2-dihydrophthalazin-6-yl)-N-((5-(2,6-difluorophenyl)pyridin-2-yl)methyl)-N-(5,6,7,8-tetrahydroquinolin-8-yl)cyclopropane-1-carboxamide]
IC50 (HCT116-mock-RNA-KO): > 10000 nM
IC50 (HCT116-MTAP-KO): 848 nM

NCc1n[nH]c(=O)c2ccc(C3(C(=O)N(Cc4ccc(Oc5ccccc5)cn4)C4CCCc5cccnc54)CC3)cc12 (stereo not drawn) [Example 20, 1-(4-(aminomethyl)-1-oxo-1,2-dihydrophthalazin-6-yl)-N-((5-phenoxypyridin-2-yl)methyl)-N-(5,6,7,8-tetrahydroquinolin-8-yl)cyclopropane-1-carboxamide]
IC50 (HCT116-mock-RNA-KO): > 1000 nM
IC50 (HCT116-MTAP-KO): 215 nM

NCc1n[nH]c(=O)c2ccc(C3(C(=O)N(Cc4ccc(-c5c(F)cccc5F)cn4)C4CCCc5cccc(F)c54)CC3)cc12 (stereo not drawn) [Example 21, 1-(4-(aminomethyl)-1-oxo-1,2-dihydrophthalazin-6-yl)-N-((5-(2,6-difluorophenyl)pyridin-2-yl)methyl)-N-(8-fluoro-1,2,3,4-tetrahydronaphthalen-1-yl)cyclopropane-1-carboxamide]
IC50 (HCT116-mock-RNA-KO): 4010 nM
IC50 (HCT116-MTAP-KO): 102 nM

NCc1n[nH]c(=O)c2ccc(C3(C(=O)N(Cc4ccc(Br)cc4F)C4CCCc5cccnc54)CC3)cc12 (stereo not drawn) [Example 22, 1-(4-(aminomethyl)-1-oxo-1,2-dihydrophthalazin-6-yl)-N-(4-bromo-2-fluorobenzyl)-N-(5,6,7,8-tetrahydroquinolin-8-yl)cyclopropane-1-carboxamide]
IC50 (HCT116-mock-RNA-KO): 7370 nM
IC50 (HCT116-MTAP-KO): 130 nM

Cc1n[nH]c(C)c1-c1ccc(CN(C(=O)C2(c3ccc4c(=O)[nH]nc(CN)c4c3)CC2)C2CCCc3cccnc32)nc1 (stereo not drawn) [Example 23, 1-(4-(aminomethyl)-1-oxo-1,2-dihydrophthalazin-6-yl)-N-((5-(3,5-dimethyl-1H-pyrazol-4-yl)pyridin-2-yl)methyl)-N-(5,6,7,8-tetrahydroquinolin-8-yl)cyclopropane-1-carboxamide]
IC50 (HCT116-mock-RNA-KO): > 10000 nM
IC50 (HCT116-MTAP-KO): 3990 nM

NCc1n[nH]c(=O)c2ccc(C3(C(=O)N(Cc4ccc(-c5c(F)cccc5F)cn4)C4CCC4)CC3)cc12 [Example 25, 1-(4-(aminomethyl)-1-oxo-1,2-dihydrophthalazin-6-yl)-N-cyclobutyl-N-((5-(2,6-difluorophenyl)pyridin-2-yl)methyl)cyclopropane-1-carboxamide]
IC50 (HCT116-mock-RNA-KO): > 10000 nM
IC50 (HCT116-MTAP-KO): 3690 nM

NCc1n[nH]c(=O)c2ccc(C3(C(=O)N(Cc4ccc(-c5c(F)cccc5Cl)cn4)C4CCCc5cccnc54)CC3)cc12 (stereo not drawn) [Example 26, 1-(4-(aminomethyl)-1-oxo-1,2-dihydrophthalazin-6-yl)-N-((5-(2-chloro-6-fluorophenyl)pyridin-2-yl)methyl)-N-(5,6,7,8-tetrahydroquinolin-8-yl)cyclopropane-1-carboxamide]
IC50 (HCT116-mock-RNA-KO): 2780 nM
IC50 (HCT116-MTAP-KO): 77 nM

NCc1n[nH]c(=O)c2ccc(C3(C(=O)N(Cc4ccc5c(Br)cccc5n4)C4CCCc5cccnc54)CC3)cc12 (stereo not drawn) [Example 27, 1-(4-(aminomethyl)-1-oxo-1,2-dihydrophthalazin-6-yl)-N-((5-bromoquinolin-2-yl)methyl)-N-(5,6,7,8-tetrahydroquinolin-8-yl)cyclopropane-1-carboxamide]
IC50 (HCT116-mock-RNA-KO): 7290 nM
IC50 (HCT116-MTAP-KO): 415 nM

N#Cc1cccc(F)c1-c1ccc(CN(C(=O)C2(c3ccc4c(=O)[nH]nc(CN)c4c3)CC2)C2CCCc3cccnc32)nc1 (stereo not drawn) [Example 28, 1-(4-(aminomethyl)-1-oxo-1,2-dihydrophthalazin-6-yl)-N-((5-(2-cyano-6-fluorophenyl)pyridin-2-yl)methyl)-N-(5,6,7,8-tetrahydroquinolin-8-yl)cyclopropane-1-carboxamide]
IC50 (HCT116-mock-RNA-KO): 3210 nM
IC50 (HCT116-MTAP-KO): 102 nM

CC(c1ncccn1)N(Cc1ccc(C(F)(F)F)cn1)C(=O)C1(c2ccc3c(=O)[nH]nc(CN)c3c2)CC1 (stereo not drawn) [Example 29, 1-(4-(aminomethyl)-1-oxo-1,2-dihydrophthalazin-6-yl)-N-(1-(pyrimidin-2-yl)ethyl)-N-((5-(trifluoromethyl)pyridin-2-yl)methyl)cyclopropane-1-carboxamide]
IC50 (HCT116-mock-RNA-KO): > 10000 nM
IC50 (HCT116-MTAP-KO): 1440 nM

COCC(COC)N(Cc1ccc(-c2c(F)cccc2F)cn1)C(=O)C1(c2ccc3c(=O)[nH]nc(CN)c3c2)CC1 [Example 30, 1-(4-(aminomethyl)-1-oxo-1,2-dihydrophthalazin-6-yl)-N-((5-(2,6-difluorophenyl)pyridin-2-yl)methyl)-N-(1,3-dimethoxypropan-2-yl)cyclopropane-1-carboxamide]
IC50 (HCT116-mock-RNA-KO): > 10000 nM
IC50 (HCT116-MTAP-KO): 254 nM

NCc1n[nH]c(=O)c2ccc(C3(C(=O)N(Cc4ccc(S(F)(F)(F)(F)F)cc4)[C@@H]4CCCc5cccnc54)CC3)cc12 [Example 31, (R)-1-(4-(aminomethyl)-1-oxo-1,2-dihydrophthalazin-6-yl)-N-(4-(pentafluoro-λ^6-sulfanyl)benzyl)-N-(5,6,7,8-tetrahydroquinolin-8-yl)cyclopropane-1-carboxamide]
IC50 (HCT116-mock-RNA-KO): 3150 nM
IC50 (HCT116-MTAP-KO): 18 nM

NCc1n[nH]c(=O)c2ccc(C3(C(=O)N(Cc4ccc(C(F)(F)F)cn4)C4CCCc5c(C6CC6)ccnc54)CC3)cc12 (stereo not drawn) [Example 32, 1-(4-(aminomethyl)-1-oxo-1,2-dihydrophthalazin-6-yl)-N-(4-cyclopropyl-5,6,7,8-tetrahydroquinolin-8-yl)-N-((5-(trifluoromethyl)pyridin-2-yl)methyl)cyclopropane-1-carboxamide]
IC50 (HCT116-mock-RNA-KO): 7330 nM
IC50 (HCT116-MTAP-KO): 140 nM

NCc1n[nH]c(=O)c2ccc(C3(C(=O)N(Cc4ccc(-c5c(F)cccc5F)cn4)C4CCc5cccnc54)CC3)cc12 (stereo not drawn) [Example 33, 1-(4-(aminomethyl)-1-oxo-1,2-dihydrophthalazin-6-yl)-N-((5-(2,6-difluorophenyl)pyridin-2-yl)methyl)-N-(6,7-dihydro-5H-cyclopenta[b]pyridin-7-yl)cyclopropane-1-carboxamide]
IC50 (HCT116-mock-RNA-KO): 9800 nM
IC50 (HCT116-MTAP-KO): 150 nM

NCc1n[nH]c(=O)c2ccc(C3(C(=O)N(Cc4ccc(Oc5c(F)cccc5F)cn4)[C@@H]4CCCc5cccnc54)CC3)cc12 [Example 34, (R)-1-(4-(aminomethyl)-1-oxo-1,2-dihydrophthalazin-6-yl)-N-((5-(2,6-difluorophenoxy)pyridin-2-yl)methyl)-N-(5,6,7,8-tetrahydroquinolin-8-yl)cyclopropane-1-carboxamide]
IC50 (HCT116-mock-RNA-KO): 3650 nM
IC50 (HCT116-MTAP-KO): 66 nM
